Reference: the OPERA property sets (Mansouri et al. 2018)

| Compound | boiling point | melting point | further results |
| --- | --- | --- | --- |
| O=S(=O)(O)C(F)(F)C(F)(F)C(F)(F)C(F)(F)C(F)(F)C(F)(F)F | 238 °C | – | – |
| CCCCCCC(C=O)=Cc1ccccc1 | – | 39.2 °C | – |
| CC(C)=CCOc1c2occc2cc2ccc(=O)oc12 | – | 102 °C | – |
| CCCCOC(=O)CCCC | 186 °C | -92.8 °C | – |
| CC(=O)Nc1ccc(C=O)cc1 | – | 157 °C | – |
| COCCOc1c(OC)cc(Cc2cnc(N)nc2N)cc1OC | – | 154 °C | – |
| Cc1ccc(CC#N)cc1 | 242 °C | 18 °C | – |
| COC(=O)c1cc(C)ccc1O | 244 °C | -1 °C | – |
| O=C1c2ccccc2C(=O)c2ccccc21 | 377 °C | 286 °C | log10 Koc (L/kg): 3.57; log10 vapour pressure (mmHg): -6.94; ready biodegradability: readily biodegradable |
| CCCCCCCCBr | 200 °C | -55 °C | log10 vapour pressure (mmHg): -0.418 |
| Pc1ccccc1 | 160 °C | – | – |
| C=C1CCC1 | 42.2 °C | -135 °C | – |
| CCCCC1C(=O)NN(c2ccccc2)C1=O (configuration not stated) | – | 102 °C | – |
| O=C(Nc1ccccc1)NC1CCCC1 | – | – | log10 Koc (L/kg): 1.93 |
| Cc1ccc(CBr)cc1 | 220 °C | 35 °C | – |
| CC(=O)Oc1ccc(C)cc1C | 226 °C | – | – |
| NCCN1CCNCC1 | 220 °C | – | ready biodegradability: not readily biodegradable |
| CC(=O)c1ccccc1C(=O)O | – | 114 °C | – |
| CC(Br)CBr (configuration not stated) | 142 °C | -55.5 °C | log10 vapour pressure (mmHg): 0.894 |
| O=C(C(=O)c1cc(Br)ccc1O)c1cc(Br)ccc1O | – | 212 °C | – |
| CCCCCCCC[Si](Cl)(Cl)Cl | 232 °C | – | – |
| O=[N+]([O-])c1ccc(Oc2ccc(Cl)cc2Cl)cc1 | – | 70 °C | log10 Koc (L/kg): 4; ready biodegradability: not readily biodegradable |
| BrC(Br)=C(Br)Br | 226 °C | 56.5 °C | – |
| O=C1C=CC(=O)N1 | – | 94 °C | – |
| O=[N+]([O-])c1ccc(Cl)cc1O | – | 41 °C | – |
| CC(=O)Oc1ccc2c(c1)CC[C@@H]1[C@@H]2CC[C@]2(C)C(=O)[C@H](OC(C)=O)C[C@@H]12 | – | 180 °C | – |

| Compound | boiling point | melting point | further results |
| --- | --- | --- | --- |
| CCC(=O)O[C@H]1CC[C@@]2(C)C(=CC[C@H]3[C@@H]4CC[C@H](OC(=O)CC)[C@@]4(C)CC[C@@H]32)C1 | – | 113 °C | – |
| CC(=O)O | 118 °C | 16.6 °C | log10 Henry constant (atm·m³/mol): -7; log10 vapour pressure (mmHg): 1.2; ready biodegradability: readily biodegradable |
| CC1(C)C=CC=C(C(=O)O)C=C1 | – | 88.5 °C | – |
| CCS(=O)(=O)Cl | 174 °C | – | – |
| COc1nc(C)nc(NC(=O)NS(=O)(=O)c2ccccc2Cl)n1 | – | 176 °C | log10 Koc (L/kg): 2.19; log10 vapour pressure (mmHg): -10.6 |
| FC(F)OC(F)(F)C(F)Cl (configuration not stated) | 56.5 °C | – | – |
| O=Cc1ccncc1 | – | – | log10 Henry constant (atm·m³/mol): -6.75 |
| Cc1coc2ccccc2c1=O | – | 68 °C | – |
| Nc1ncn([C@@H]2O[C@H](CO)[C@@H](O)[C@H]2O)c(=O)n1 | – | 229 °C | – |
| Oc1ccccc1F | 152 °C | 16.1 °C | log10 Henry constant (atm·m³/mol): -5.49; ready biodegradability: not readily biodegradable |
| Cc1cccc(Nc2ccccc2)c1 | 316 °C | 30 °C | log10 vapour pressure (mmHg): -3.83 |
| CCCCCCCC(=O)Oc1c(I)cc(C#N)cc1I | – | 59.5 °C | – |
| CCN(CC)c1ccc(N)cc1 | 261 °C | – | – |
| CCOC(=O)C(=O)c1ccccc1 | 256 °C | – | – |
| COc1cc(Cl)cc(Cl)c1 | – | 41 °C | – |
| Nc1cc(-c2ccccc2)ccc1O | – | 200 °C | – |
| CC(C)CCOC(=O)C(C)C | 168 °C | – | – |
| COP(=S)(OC)Oc1cc(Cl)c(I)cc1Cl | – | 72.5 °C | log10 vapour pressure (mmHg): -6.08; log10 BCF (fish): 3.62; log10 biotransformation half-life (days) (fish): 0.86 |
| O=C(O)CCc1nc(-c2ccccc2)c(-c2ccccc2)o1 | – | 161 °C | – |
| CCOC(=O)c1cn2nc(OP(=S)(OCC)OCC)cc2nc1C | – | 51 °C | – |
| O=C1CCC(=O)N1Br | – | 174 °C | – |
| CCCCC(=O)O | 186 °C | -34 °C | log10 Henry constant (atm·m³/mol): -6.33; log10 vapour pressure (mmHg): -0.708; ready biodegradability: readily biodegradable |
| CCC(C)CC(C)CC (configuration not stated) | 136 °C | – | – |
| CCCSc1ccccc1 | 220 °C | -45 °C | – |
| CN=C(O)Sc1ccc(OS(C)(=O)=O)cc1 | – | 137 °C | – |
